The results in this text go back to patent publication US6255335A, “Substituted 2-oxo-alkanoic acid-[2-(indol-3-yl)-ethyl] amides” (Bayer Aktiengesellschaft, priority 1998, dated 2001).

Holding throughout (type): cell-based
For one test, the system named is Staph. hyicus. In words: MIC by serial dilution on iso-sensitest agar, Staph. hyicus. The conditions noted are these: Staphylococcus hyicus, 20 h, 37° C., about 20 hours. As to the method: (§1) The minimum inhibitory concentrations (MIC) of the compounds according to the invention were determined by serial dilution methods on iso-sensitest agar (Oxoid). For each test substance, a number of agar plates were prepared which, each with a doubled dilution, contained decreasing concentrations of the active compound. The agar plates were inoculated using a multipoint inoculator (Denley). For inoculation, overnight cultures of the pathogens were used which had previously been diluted such that each inoculation point contained about 10^4 colony-forming particles. The inoculated agar plates were incubated at 37° C., and the bacterial growth was read off after about 20 hours. The MIC value (μg/ml) indicates the lowest active compound concentration at which no growth could be detected with the naked eye.

Another test concerns Staph. interm. In words: MIC by serial dilution on iso-sensitest agar, Staph. interm. To be noted: strain ATCC 29663; 37° C., about 20 hours. As to the method: as §1
Another test concerns Staph. aureus. In words: MIC by serial dilution on iso-sensitest agar, Staph. aureus. To be noted: Staphylococcus aureus, 37° C., about 20 hours. As to the method:
as §1

Setting [1] is: strain 9621, actual clinical isolate.
Setting [2] is: strain 9622, actual clinical isolate.
[3] abbreviates: strain 9637, actual clinical isolate.
[4] abbreviates: strain 9641, actual clinical isolate.

≈ marks a conversion by molar mass, not a printed value.

On to `CCC(C)C(=O)C(=O)NCCc1c[nH]c2ccccc12` (stereo not shown) [A, reference compound], for which the MIC (usually the lowest concentration that inhibits growth of the organism) with Staph. hyicus (setting [1]) came to 1 µg/mL (≈ 3.67 µM); with Staph. hyicus (setting [2]) it was 0.5 µg/mL (≈ 1.84 µM); in the test with Staph. hyicus (setting [3]), 0.25 µg/mL (≈ 0.918 µM); against Staph. hyicus (setting [4]), 0.25 µg/mL (≈ 0.918 µM); in the test on Staph. interm. it was 8 µg/mL (≈ 29.4 µM); in the test on Staph. aureus (ATCC6538, strain ATCC 6538), 0.25 µg/mL (≈ 0.918 µM). Also, the MIC stood at 0.125 µg/mL (≈ 0.459 µM) in the test on Staph. aureus (ATCC25923, strain ATCC 25923) and 0.125 µg/mL (≈ 0.459 µM) against Staph. aureus (ATCC29213, strain ATCC 29213).
`CC(C)CC(=O)C(=O)NCCc1cn(C(C)C)c2ccccc12` [Compound 4]: the MIC in the test with Staph. hyicus (setting [1]) worked out at 0.06 µg/mL (≈ 0.191 µM); with Staph. hyicus (setting [2]), 0.25 µg/mL (≈ 0.795 µM); in the test on Staph. hyicus (setting [3]) it was 0.125 µg/mL (≈ 0.398 µM); against Staph. hyicus (setting [4]) it was 0.125 µg/mL (≈ 0.398 µM); with Staph. interm., 2 µg/mL (≈ 6.36 µM); against Staph. aureus (ATCC6538, strain ATCC 6538), 0.125 µg/mL (≈ 0.398 µM). In addition, the minimal inhibitory concentration (MIC) with Staph. aureus (ATCC25923, strain ATCC 25923) is 0.06 µg/mL (≈ 0.191 µM); against Staph. aureus (ATCC29213, strain ATCC 29213) it was 0.25 µg/mL (≈ 0.795 µM).
As to `CC(C)CC(=O)C(=O)NCCc1c[nH]c2ccccc12` [B, reference compound], the MIC in the test on Staph. hyicus (setting [1]) was 0.25 µg/mL (≈ 0.918 µM); in the test on Staph. hyicus (setting [2]) it was 0.03 µg/mL (≈ 0.11 µM); with Staph. hyicus (setting [3]), 0.25 µg/mL (≈ 0.918 µM); against Staph. hyicus (setting [4]) it was 0.25 µg/mL (≈ 0.918 µM); with Staph. interm., 2 µg/mL (≈ 7.34 µM); in the test with Staph. aureus (ATCC6538, strain ATCC 6538), 0.125 µg/mL (≈ 0.459 µM). Moreover, the MIC stood at 0.25 µg/mL (≈ 0.918 µM) against Staph. aureus (ATCC25923, strain ATCC 25923) and 0.25 µg/mL (≈ 0.918 µM) in the test on Staph. aureus (ATCC29213, strain ATCC 29213).
Regarding `CCC(C)C(=O)C(=O)NCCc1cn(Cc2ccccc2)c2ccccc12` (stereo not shown) [Compound 6], the MIC came to 1 µg/mL (≈ 2.76 µM) in the test on Staph. hyicus (setting [1]); 1 µg/mL (≈ 2.76 µM) against Staph. hyicus (setting [2]); 0.125 µg/mL (≈ 0.345 µM) in the test with Staph. hyicus (setting [3]); 0.125 µg/mL (≈ 0.345 µM) against Staph. hyicus (setting [4]); 8 µg/mL (≈ 22.1 µM) against Staph. interm.; 0.125 µg/mL (≈ 0.345 µM) in the test on Staph. aureus (ATCC6538, strain ATCC 6538). Besides, the MIC in the test on Staph. aureus (ATCC25923, strain ATCC 25923) came to 0.125 µg/mL (≈ 0.345 µM); against Staph. aureus (ATCC29213, strain ATCC 29213), 0.125 µg/mL (≈ 0.345 µM).
On to `CCC(C)C(=O)C(=O)NCCc1cn(C)c2ccccc12` (stereo not shown) [Compound 1], for which the MIC with Staph. hyicus (setting [1]) was 0.06 µg/mL (≈ 0.21 µM); in the test on Staph. hyicus (setting [2]), 0.06 µg/mL (≈ 0.21 µM); against Staph. hyicus (setting [3]), 0.015 µg/mL (≈ 0.0524 µM); against Staph. hyicus (setting [4]), 0.015 µg/mL (≈ 0.0524 µM); against Staph. interm., 2 µg/mL (≈ 6.98 µM); in the test with Staph. aureus (ATCC6538, strain ATCC 6538), 0.015 µg/mL (≈ 0.0524 µM). Further, the MIC against Staph. aureus (ATCC25923, strain ATCC 25923) turned out to be 0.015 µg/mL (≈ 0.0524 µM); in the test with Staph. aureus (ATCC29213, strain ATCC 29213) it was 0.015 µg/mL (≈ 0.0524 µM).
Turning to `CCC(C)C(=O)C(=O)NCCc1cn(C(C)C)c2ccccc12` (stereo not shown) [Compound 3], the minimal inhibitory concentration (MIC) amounted to 1 µg/mL (≈ 3.18 µM) against Staph. hyicus (setting [1]); 0.5 µg/mL (≈ 1.59 µM) in the test on Staph. hyicus (setting [2]); 0.03 µg/mL (≈ 0.0954 µM) in the test with Staph. hyicus (setting [3]); 0.03 µg/mL (≈ 0.0954 µM) with Staph. hyicus (setting [4]); 4 µg/mL (≈ 12.7 µM) against Staph. interm.; 0.03 µg/mL (≈ 0.0954 µM) in the test on Staph. aureus (ATCC6538, strain ATCC 6538). Further, the MIC in the test with Staph. aureus (ATCC25923, strain ATCC 25923) was determined as 0.03 µg/mL (≈ 0.0954 µM); in the test with Staph. aureus (ATCC29213, strain ATCC 29213) it was 0.03 µg/mL (≈ 0.0954 µM).
In the case of `CC(C)CC(=O)C(=O)NCCc1cn(-c2ccccc2)c2ccccc12` [Compound 5], the minimum inhibitory concentration (MIC) was 0.06 µg/mL (≈ 0.172 µM) in the test on Staph. hyicus (setting [1]); 0.015 µg/mL (≈ 0.043 µM) with Staph. hyicus (setting [2]); 0.06 µg/mL (≈ 0.172 µM) in the test with Staph. hyicus (setting [3]); 0.06 µg/mL (≈ 0.172 µM) against Staph. hyicus (setting [4]); 1 µg/mL (≈ 2.87 µM) against Staph. interm.; 0.03 µg/mL (≈ 0.0861 µM) in the test with Staph. aureus (ATCC6538, strain ATCC 6538). Besides, the minimum inhibitory concentration (MIC) amounted to 0.06 µg/mL (≈ 0.172 µM) in the test with Staph. aureus (ATCC25923, strain ATCC 25923) and 0.06 µg/mL (≈ 0.172 µM) against Staph. aureus (ATCC29213, strain ATCC 29213).
With `CC(C)CC(=O)C(=O)NCCc1cn(C)c2ccccc12` [Compound 2], the minimal inhibitory concentration (MIC) came to 0.03 µg/mL (≈ 0.105 µM) in the test with Staph. hyicus (setting [1]); 0.03 µg/mL (≈ 0.105 µM) in the test with Staph. hyicus (setting [2]); 0.03 µg/mL (≈ 0.105 µM) against Staph. hyicus (setting [3]); 0.03 µg/mL (≈ 0.105 µM) in the test with Staph. hyicus (setting [4]); 2 µg/mL (≈ 6.98 µM) in the test with Staph. interm.; 0.03 µg/mL (≈ 0.105 µM) against Staph. aureus (ATCC6538, strain ATCC 6538). Besides, the MIC came to 0.03 µg/mL (≈ 0.105 µM) against Staph. aureus (ATCC25923, strain ATCC 25923) and 0.03 µg/mL (≈ 0.105 µM) in the test with Staph. aureus (ATCC29213, strain ATCC 29213).
